pEC50, pKi: −log10 of the molar value.
Experiments:
[1] = target: isolated recombinant JAK1 kinase domain (Homo sapiens (Human), UniProt P23458); experiment: JAK1 enzyme assay (Caliper LabChip, peptide phosphorylation); assay type: biochemical; conditions: isolated recombinant JAK1 kinase domain, 25 μM ATP
[2] = target: isolated recombinant JAK2 kinase domain (Homo sapiens (Human), UniProt O60674); experiment: JAK2 enzyme assay (Caliper LabChip, peptide phosphorylation); assay type: biochemical; conditions: 25 μM ATP
isolated recombinant JAK2 kinase domain, sequence (O60674 849-1124): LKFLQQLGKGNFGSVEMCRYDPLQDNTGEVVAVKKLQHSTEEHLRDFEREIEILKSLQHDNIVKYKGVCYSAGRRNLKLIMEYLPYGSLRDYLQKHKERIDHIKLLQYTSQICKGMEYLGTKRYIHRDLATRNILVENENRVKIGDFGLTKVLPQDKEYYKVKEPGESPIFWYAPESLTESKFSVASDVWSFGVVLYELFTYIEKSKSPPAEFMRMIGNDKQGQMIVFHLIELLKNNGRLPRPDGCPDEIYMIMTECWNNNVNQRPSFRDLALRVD

[3] = system: JAK1-dependent STAT6 phosphorylation downstream of IL-13 stimulation in TF-1 human erythroleukemia cells; experiment: JAK1 pathway assay in TF-1 cells (IL-13-pSTAT6, MSD); assay type: cell-based; conditions: Homo sapiens, TF-1, TF-1 cells, read-out: IL13-pSTAT6 EC50_TF-1
How it was run: (§1)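 TF-1 cells are starved of GM-CSF overnight and run in serum-free medium, while BEAS-2B cells stay in complete growth medium. Inhibition of STAT6 phosphorylation is measured by MSD.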

[4] = system: JAK1-dependent STAT6 phosphorylation downstream of IL-13 stimulation in BEAS-2B human bronchial epithelial cells; experiment: JAK1 pathway assay in BEAS-2B cells (IL-13-pSTAT6, MSD); assay type: cell-based; conditions: read-out: IL13-pSTAT6 EC50 (uM)_BEAS-2B
How it was run: as §1

isolated recombinant JAK1 kinase domain, sequence (P23458 875-1153): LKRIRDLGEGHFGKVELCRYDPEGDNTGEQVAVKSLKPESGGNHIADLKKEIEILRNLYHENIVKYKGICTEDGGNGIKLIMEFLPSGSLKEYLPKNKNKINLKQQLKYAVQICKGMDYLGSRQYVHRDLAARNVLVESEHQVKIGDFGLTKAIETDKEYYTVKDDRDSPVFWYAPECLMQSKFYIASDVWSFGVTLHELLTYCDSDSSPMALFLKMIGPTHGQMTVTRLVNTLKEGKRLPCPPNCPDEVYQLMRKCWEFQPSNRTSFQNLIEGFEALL

Compound	pKi [1]	pKi [2]	pEC50 [3]	EC50 [4]
CN(CC1(C#N)CCCCC1)C1CCN(C(=O)C2CCN(c3nc(-c4cc(Cl)ccc4OC(F)F)c(NC(=O)c4cnn5cccnc45)s3)CC2)CC1 [Example 204, N-[4-[5-chloro-2-(difluoromethoxy)phenyl]-2-[4-[4-[(1-cyanocyclohexyl)methyl-methyl-amino]piperidine-1-carbonyl]-1-piperidyl]thiazol-5-yl]pyrazolo[1,5-a]pyrimidine-3-carboxamide]	8.70	8.85	8.10	0.172 µM
O=C(Nc1cn(CC(=O)N2C[C@H]3CN(CC4CCC4)C[C@H]3C2)nc1-c1cc(Cl)ccc1OC(F)F)c1cnn2cccnc12 [Example 40, N-[1-[2-[(3aR,6aS)-2-(cyclobutylmethyl)-1,3,3a,4,6,6a-hexahydropyrrolo[3,4-c]pyrrol-5-yl]-2-oxo-ethyl]-3-[5-chloro-2-(difluoromethoxy)phenyl]pyrazol-4-yl]pyrazolo[1,5-a]pyrimidine-3-carboxamide]	9.19	9.21	8.42	0.128 µM
CCOC(=O)CNCCn1cc(NC(=O)c2cnn3cccnc23)c(-c2cc(Cl)ccc2OC(F)F)n1 [Example 306, Ethyl 2-[(2-[3-[5-chloro-2-(difluoromethoxy)phenyl]-4-[pyrazolo[1,5-a]pyrimidine-3-amido]-1H-pyrazol-1-yl]ethyl)amino]acetate]	8.94	9.27	8.21	0.0659 µM
CN(CCC#N)C1CCN(c2nc(-c3cc(Cl)ccc3OC(F)F)c(NC(=O)c3cnn4cccnc34)s2)CC1 [Example 189, Pyrazolo[1,5-a]pyrimidine-3-carboxylic acid (4-(5-chloro-2-difluoromethoxy-phenyl)-2-{4-[(2-cyano-ethyl)-methyl-amino]-piperidin-1-yl}-thiazol-5-yl)-amide]	8.59	8.79	8.28	0.02 µM
O=C(Nc1cn(CC(=O)N2CCCCC2)nc1-c1cc(Cl)ccc1OC(F)F)c1cnn2cccnc12 [Example 308, N-[3-[5-chloro-2-(difluoromethoxy)phenyl]-1-[2-oxo-2-(1-piperidyl)ethyl]pyrazol-4-yl]pyrazolo[1,5-a]pyrimidine-3-carboxamide]	–	9.26	8.82	0.0236 µM
C[N+](C)(CCCc1ccccc1)C1CCN(C(=O)Cn2cc(NC(=O)c3cnn4cccnc34)c(-c3cc(Cl)ccc3OC(F)F)n2)CC1 [Example 124, [1-[2-[3-[5-chloro-2-(difluoromethoxy)phenyl]-4-(pyrazolo[1,5-a]pyrimidine-3-carbonylamino)pyrazol-1-yl]acetyl]-4-piperidyl]-dimethyl-(3-phenylpropyl)ammonium]	–	–	7.06	0.535 µM
CN(C)C1CCN(c2nc(-c3cc(Cl)ccc3OC(F)F)c(NC(=O)c3cnn4cccnc34)s2)CC1 [Example 188, Pyrazolo[1,5-a]pyrimidine-3-carboxylic acid [4-(5-chloro-2-difluoromethoxy-phenyl)-2-(4-dimethylamino-piperidin-1-yl)-thiazol-5-yl]-amide]	8.90	–	8.24	0.0349 µM
O=C1CCC(CNCCn2cc(NC(=O)c3cnn4cccnc34)c(-c3cc(Cl)ccc3OC(F)F)n2)O1 (stereo not drawn) [Example 381, N-[3-[5-chloro-2-(difluoromethoxy)phenyl]-1-(2-[[(5-oxooxolan-2-yl)methyl]amino]ethyl)-1H-pyrazol-4-yl]pyrazolo[1,5-a]pyrimidine-3-carboxamide]	8.97	9.26	–	0.0298 µM
CN(CC1CCC(=O)O1)C1CCN(C(=O)Cn2cc(NC(=O)c3cnn4cccnc34)c(-c3cc(Cl)ccc3OC(F)F)n2)CC1 (stereo not drawn) [Example 344, N-[3-[5-chloro-2-(difluoromethoxy)phenyl]-1-[2-(4-[methyl[(5-oxooxolan-2-yl)methyl]amino]piperidin-1-yl)-2-oxoethyl]-1H-pyrazol-4-yl]pyrazolo[1,5-a]pyrimidine-3-carboxamide]	9.15	8.72	–	0.0484 µM
C[C@@H](Cn1cc(NC(=O)c2cnn3cccnc23)c(-c2cc(Cl)ccc2OC(F)F)n1)N(C)C [Example 370, N-[3-[5-chloro-2-(difluoromethoxy)phenyl]-1-[(2S)-2-(dimethylamino)propyl]-1H-pyrazol-4-yl]pyrazolo[1,5-a]pyrimidine-3-carboxamide]	8.86	8.86	–	0.0402 µM

The remaining molecules from weak to strong by pKi [1], led by results:

pKi [1]	pKi [2]	pEC50 [3]	Compound	EC50 [4]
9.24	–	7.45	NC1CCN(C(=O)Cn2cc(NC(=O)c3cnn4cccnc34)c(-c3cc(Cl)ccc3OC(F)F)n2)CC1 [Example 66, N-[1-[2-(4-amino-1-piperidyl)-2-oxo-ethyl]-3-[5-chloro-2-(difluoromethoxy)phenyl]pyrazol-4-yl]pyrazolo[1,5-a]pyrimidine-3-carboxamide]	0.335 µM
9.27	9.26	8.44	O=C(Cn1cc(NC(=O)c2cnn3cccnc23)c(-c2cc(Cl)ccc2OC(F)F)n1)NCC1(CO)CC1 [Example 291, N-[3-[5-chloro-2-(difluoromethoxy)phenyl]-1-[2-[[1-(hydroxy-methyl)cyclopropyl]methylamino]-2-oxo-ethyl]pyrazol-4-yl]pyrazolo[1,5-a]pyrimidine-3-carboxamide]	0.0317 µM
9.28	9.74	8.36	CN[C@H]1C[C@@H](n2cc(NC(=O)c3c(N)nn4cccnc34)c(-c3cc(Cl)ccc3OC(F)F)n2)C1 [Example 298, 2-amino-N-[3-[5-chloro-2-(difluoromethoxy)phenyl]-1-[3-(methylamino)cyclobutyl]pyrazol-4-yl]pyrazolo[1,5-a]pyrimidine-3-carboxamide]	0.0215 µM
9.29	8.95	8.07	CC1(CN(CCC(F)(F)F)C2CCN(C(=O)Cn3cc(NC(=O)c4cnn5cccnc45)c(-c4cc(Cl)ccc4OC(F)F)n3)CC2)COC1 [Example 117, N-[3-[5-chloro-2-(difluoromethoxy)phenyl]-1-[2-[4-[(3-methyloxetan-3-yl)methyl-(3,3,3-trifluoropropyl)amino]-1-piperidyl]-2-oxo-ethyl]pyrazol-4-yl]pyrazolo[1,5-a]pyrimidine-3-carboxamide]	0.0546 µM
9.31	9.68	8.26	NCCn1cc(NC(=O)c2c(N)nn3cccnc23)c(-c2cc(Cl)ccc2OC(F)F)n1 [Example 295, 2-amino-N-[1-(2-aminoethyl)-3-[5-chloro-2-(difluoromethoxy)phenyl]pyrazol-4-yl]pyrazolo[1,5-a]pyrimidine-3-carboxamide]	0.0345 µM
9.34	9.27	–	CN1CCCC2CN(C(=O)Cn3cc(NC(=O)c4cnn5cccnc45)c(-c4cc(Cl)ccc4OC(F)F)n3)CC21 (stereo not drawn) [Example 440, N-(3-(5-chloro-2-(difluoromethoxy)phenyl)-1-(2-(1-methyl-octahydropyrrolo[3,4-b]pyridin-6-yl)-2-oxoethyl)-1H-pyrazol-4-yl)pyrazolo[1,5-a]pyrimidine-3-carboxamide]	0.0068 µM
9.39	9.00	–	CC1(C(=O)OCCN2CCOCC2)CCN(C(=O)Cn2cc(NC(=O)c3cnn4cccnc34)c(-c3cc(Cl)ccc3OC(F)F)n2)CC1 [Example 339, 2-(morpholin-4-yl)ethyl1-(2-[3-[5-chloro-2-(difluoromethoxy)phenyl]-4-[pyrazolo[1,5-a]pyrimidine-3-amido]-1H-pyrazol-1-yl]acetyl)-4-methylpiperidine-4-carboxylate]	0.0094 µM
9.40	9.64	–	CN1CCC(n2cc(Cn3cc(NC(=O)c4cnn5cccnc45)c(-c4cc(Cl)ccc4OC(F)F)n3)nn2)CC1 [Example 454, N-(3-(5-chloro-2-(difluoromethoxy)phenyl)-1-((1-(1-methylpiperidin-4-yl)-1H-1,2,3-triazol-4-yl)methyl)-1H-pyrazol-4-yl)pyrazolo[1,5-a]pyrimidine-3-carboxamide]	0.0235 µM
9.41	9.09	8.37	CC1(O)CCN(C(=O)Cn2cc(NC(=O)c3cnn4cccnc34)c(-c3cc(Cl)ccc3OC(F)F)n2)CC1 [Example 280, N-[3-[5-chloro-2-(difluoromethoxy)phenyl]-1-[2-(4-hydroxy-4-methyl-1-piperidyl)-2-oxo-ethyl]pyrazol-4-yl]pyrazolo[1,5-a]pyrimidine-3-carboxamide]	0.0215 µM
9.42	9.41	8.39	CCN(Cc1ccnc(C)c1)C(=O)Cn1cc(NC(=O)c2cnn3cccnc23)c(-c2cc(Cl)ccc2OC(F)F)n1 [Example 299, N-[3-[5-chloro-2-(difluoromethoxy)phenyl]-1-[2-[ethyl-[(2-methyl-4-pyridyl)methyl]amino]-2-oxo-ethyl]pyrazol-4-yl]pyrazolo[1,5-a]pyrimidine-3-carboxamide]	0.0104 µM
9.42	–	8.48	COCCN1CCN(C(=O)Cn2cc(NC(=O)c3cnn4cccnc34)c(-c3cc(Cl)ccc3OC(F)F)n2)CC1 [Example 229, N-[3-[5-chloro-2-(difluoromethoxy)phenyl]-1-[2-[4-(2-methoxyethyl)piperazin-1-yl]-2-oxo-ethyl]pyrazol-4-yl]pyrazolo[1,5-a]pyrimidine-3-carboxamide]	0.0516 µM

From patent US9346815B2, “5-chloro-2-difluoromethoxyphenyl pyrazolopyrimidine compounds, compositions and methods of use thereof” (Genentech, Inc., priority 2014, dated 2016)
